Test results: patent US11752156B2, “Compositions and methods for treating hyperproliferative skin disorders” (Athenex HK Innovative Limited, priority 2018, dated 2023)
pIC50: −log10 of the molar value. Values joined by “and” are separate entries in the source; they are usually repeats but may differ in a detail not shown here. Equal entries are not always repeated. Where two headings read alike, the source gives them in different places.

How the values were obtained:
Assay type in all cases: cell-based
[1] = tested on: CCD 1106 KERTr human keratinocyte cell line; test: MTT cell proliferation assay, 72 hours, dark or blue light, keratinocytes; conditions: for inhibition at 0.005 µM / inhibition at 0.02 µM / inhibition at 0.08 µM / inhibition at 0.32 µM / inhibition at 1.28 µM: Homo sapiens, read-out: growth inhibition relative to untreated control
Protocol: The effects of combined treatment with KX01, a vitamin D derivative, and/or blue/UV light exposure were characterized using a cell proliferation assay. Cell proliferation was assessed by using an MTT assay. Cells were seeded in 96-well plate (3,000-5,000 cells per well) and treated with test compounds at varying concentrations (e.g. KX01: 5 to 80 nM; calcipotriol 5 to 1,280 nM) for 72 hours, either in the dark or exposed to blue light irradiation (for 2, 4, or 6 hours). To each well, 10 μl of 3-(4,5-dimethylthiazol-2-yl)-2,5-diphenyltetrazolium bromide (MTT) (RPI Corporation™) solution (5 mg/ml in PBS) was added and incubated at 37° C. for 3 hours. Next, 100 μl of 20% SDS was added to each well. After overnight incubation at 37° C., the absorbance in each well was measured at 570 nm in a microplate reader (Molecular Devices™). The cell growth curve and GI50s were calculate using GraphPad Prism™ 5 software. Tables 13 and 14 show the results of cell growth inhibition studies (expressed as a percentage relative to control cell growth) for treatment with either KX01 or calcipotriol in combination with exposure to blue light. […] The percentage of growth inhibition relative to untreated control is shown. […] The percentage of growth inhibition relative to untreated control is shown. Tables 15 to 18 show the effects of combined treatment with KX01, calcipotriol, and exposure to blue light at 0 hours, 2 hours, 4 hours, and 6 hours of light exposure (respectively). Values are expressed as the percentage of growth inhibition relative to cells grown under control conditions (0 hours blue light, [KX01]=0, [calcipotriol]=0). […] Results are shown below in Tables 27 to Table 30, which show results from 0, 2, 4, and 6 hours of blue light exposure (respectively). Values are expressed as the percentage of growth inhibition relative to cells grown under control conditions (0 hours blue light, [KX01]=0, [calcipotriol]=0).

[2] = tested on: human keratinocytes in culture (cell line CCD-1106 KERTr); test: cell viability / cell growth of human keratinocytes in culture, KX01, calcipotriol and fixed-ratio combinations; parameters: cell growth (cell viability): unit not given here
Description: Typical data from studies of the effects of compound KX01 provided in combination with calcipotriol on growth of human keratinocytes in culture (cell line CCD-1106 KERTr) are shown in FIGS. 1 to 3 and Tables 1 to 6. FIG. 1 and Tables 1 and 2 show the degree of growth inhibition found in a typical study performed with KX01 and calcipotriol at a 1:5 ratio.

[3] = tested on: human keratinocyte cell line; test: combinatorial dose response surface study of cell viability (PSI), KX01 and calcipotriol; conditions: model estimate
Description: FIG. 6: Dose response surface of cell viability versus calcipotriol concentration versus KX01 concentration. Synergistic combinations of calcipotriol and KX01 are below the surface of additivity (indicating enhanced inhibition of growth), and antagonistic combinations are above the surface of additivity (indicative of reduced inhibition of growth). Individual dose response curves for KX01 and calcipotriol as determined above can be used to generate dose response surfaces representative of the additive effects of these compounds on keratinocyte growth. […] A PSI value of 1 corresponds to an additive effect. A PSI value of less than 1 indicates a synergistic effect, and a PSI value of greater than 1 indicates an antagonistic effect. Cell viability was measured in a number of experiments. In Experiment 1, the concentrations of calcipotriol were: 0, 3, 9, 27, 81, and 243 nM, and the concentrations of KX01 were: 0, 5, 10, 20, 40, 60, 80, and 160 nM. In Experiment 2, the concentrations of calcipotriol were: 0, 5, 10, 20, 40, 80, 160, 320, and 1280 nM, and the concentrations of KX01 were: 1, 3, 9, 27, and 81 nM. […] It is notable that unexpected synergy is observed across a range of concentrations and combinations. Tables 7, 8, and 9 show the results for determination of individual IC50 and maximum inhibitory concentration values for KX01 and calcipotriol, as well as the PSI value for the drug combination. […]

## C=C1/C(=C\C=C2/CCC[C@]3(C)[C@@H]([C@H](C)/C=C/[C@@H](O)C4CC4)CC[C@@H]23)C[C@@H](O)C[C@@H]1O [Calcipotriol, calcipotriol]
[1]; CCD-1106, 0 h, calcipotriol 5 nM, blue light 0 h
  inhibition at 0.005 µM: 9%
[1]; CCD-1106, 0 h, calcipotriol 20 nM, blue light 0 h
  inhibition at 0.02 µM: 24%
[1]; CCD-1106, 0 h, calcipotriol 80 nM, blue light 0 h
  inhibition at 0.08 µM: 45%
[1]; CCD-1106, 0 h, calcipotriol 320 nM, blue light 0 h
  inhibition at 0.32 µM: 48%
[1]; CCD-1106, 0 h, calcipotriol 1,280 nM, blue light 0 h
  inhibition at 1.28 µM: 43%
[1]; CCD-1106, 2 h, calcipotriol 5 nM, blue light 2 h
  inhibition at 0.005 µM: 32%
[1]; CCD-1106, 2 h, calcipotriol 20 nM, blue light 2 h
  inhibition at 0.02 µM: 39%
[1]; CCD-1106, 2 h, calcipotriol 80 nM, blue light 2 h
  inhibition at 0.08 µM: 55%
[1]; CCD-1106, 2 h, calcipotriol 320 nM, blue light 2 h
  inhibition at 0.32 µM: 66%
[1]; CCD-1106, 2 h, calcipotriol 1,280 nM, blue light 2 h
  inhibition at 1.28 µM: 62%
[1]; CCD-1106, 4 h, calcipotriol 5 nM, blue light 4 h
  inhibition at 0.005 µM: 53%
[1]; CCD-1106, 4 h, calcipotriol 20 nM, blue light 4 h
  inhibition at 0.02 µM: 58%
[1]; CCD-1106, 4 h, calcipotriol 80 nM, blue light 4 h
  inhibition at 0.08 µM: 70%
[1]; CCD-1106, 4 h, calcipotriol 320 nM, blue light 4 h
  inhibition at 0.32 µM: 71%
[1]; CCD-1106, 4 h, calcipotriol 1,280 nM, blue light 4 h
  inhibition at 1.28 µM: 69%
[1]; CCD-1106, 6 h, calcipotriol 5 nM, blue light 6 h
  inhibition at 0.005 µM: 56%
[1]; CCD-1106, 6 h, calcipotriol 20 nM, blue light 6 h
  inhibition at 0.02 µM: 59%
[1]; CCD-1106, 6 h, calcipotriol 80 nM, blue light 6 h
  inhibition at 0.08 µM: 71%
[1]; CCD-1106, 6 h, calcipotriol 320 nM, blue light 6 h
  inhibition at 0.32 µM: 72%
[1]; CCD-1106, 6 h, calcipotriol 1,280 nM, blue light 6 h
  inhibition at 1.28 µM: 66%
[1]; calcipotriol 5 nM, blue light 0 h
  growth inhibition relative to untreated control: 6%
[1]; calcipotriol 5 nM, blue light 2 h
  growth inhibition relative to untreated control: 33%
[1]; calcipotriol 5 nM, blue light 4 h
  growth inhibition relative to untreated control: 47%
[1]; calcipotriol 5 nM, blue light 6 h
  growth inhibition relative to untreated control: 51%
[1]; calcipotriol 20 nM, blue light 0 h
  growth inhibition relative to untreated control: 17%
[1]; calcipotriol 20 nM, blue light 4 h
  growth inhibition relative to untreated control: 52%
[1]; calcipotriol 80 nM, blue light 0 h
  growth inhibition relative to untreated control: 35%
[1]; calcipotriol 80 nM, blue light 4 h
  growth inhibition relative to untreated control: 64%
[1]; calcipotriol 80 nM, blue light 6 h
  growth inhibition relative to untreated control: 67%
[1]; calcipotriol 320 nM, blue light 2 h
  growth inhibition relative to untreated control: 60%
[1]; calcipotriol 320 nM, blue light 4 h
  growth inhibition relative to untreated control: 67%
[1]; calcipotriol 1,280 nM, blue light 0 h
  growth inhibition relative to untreated control: 37%
[1]; calcipotriol 1,280 nM, blue light 4 h
  growth inhibition relative to untreated control: 63%
[1]; calcipotriol 1,280 nM, blue light 6 h
  growth inhibition relative to untreated control: 67%
[1]; for example 6 hours of blue light with 10 nm KX01
  effect of blue light exposure with the drug on cell growth inhibition: Synergistic effects
[2]
  GI50: 310 nM and 339 nM
[2]; Homo sapiens, CCD-1106
  GI50: 265 nM
[2]; Homo sapiens, CCD-1106, concentration 3 nM
  viability at 0.003 µM: 94%
[2]; Homo sapiens, CCD-1106, concentration 9 nM
  viability at 0.009 µM: 89.9%
[2]; Homo sapiens, CCD-1106, concentration 27 nM
  viability at 0.027 µM: 70.5%
[2]; Homo sapiens, CCD-1106, concentration 81 nM
  viability at 0.081 µM: 49.4%
[2]; Homo sapiens, CCD-1106, concentration 243 nM
  viability at 0.243 µM: 47.3%
[2]; Homo sapiens, CCD-1106, concentration 729 nM
  viability at 0.729 µM: 47%
[2]; Homo sapiens, CCD-1106, concentration 2187 nM
  viability at 2.187 µM: 44.8%
[2]; Homo sapiens, CCD-1106, concentration 6561 nM
  viability at 6.561 µM: 19.2%
[2]; concentration 3 nM, 0.003 µM
  cell growth (cell viability): 95.3 and 96.1
[2]; concentration 9 nM, 0.009 µM
  cell growth (cell viability): 88.8 and 89.7
[2]; concentration 27 nM, 0.027 µM
  cell growth (cell viability): 72.5 and 70.1
[2]; concentration 81 nM, 0.081 µM
  cell growth (cell viability): 53.2 and 52.8
[2]; concentration 243 nM, 0.243 µM
  cell growth (cell viability): 47.7 and 51.0
[2]; concentration 729 nM, 0.729 µM
  cell growth (cell viability): 47.1 and 48.7
[2]; concentration 2187 nM, 2.187 µM
  cell growth (cell viability): 46.7 and 48.3
[2]; concentration 6561 nM, 6.561 µM
  cell growth (cell viability): 25.2 and 26.5
[3]; Homo sapiens, Keratinocyte
  pIC50: 6.95
[3]
  pIC50: 7.23
  Max Inhibition: 0.474 and 0.36 and 0.439
